The results in this text go back to PubChem BioAssay (NCI).

Holding throughout (assay): inhibition of tumour cell growth, NCI panel, 48 h
The test system of test [1] is KM12 colon.
The subject of test [2] is M14 melanoma.
Test [3] has as its system MDA-MB-435.
Test [4] concerns OVCAR-3 ovarian.
For test [5], the system named is SF-295 CNS.
Test [6] deals with SK-MEL-28 melanoma.
The test system of test [7] is MDA-N.
In test [8] the test system is LOX IMVI melanoma.
The test system of test [9] is UO-31 renal.
Test [10] deals with SF-539 CNS.

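Briefly, cells in 96-well plates were exposed to five compound concentrations for 48 h, and endpoints were estimated by linear interpolation. GI50 is the concentration that inhibits growth by half. TGI is the concentration that stops growth completely.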

Turning to `CC(=O)CC(O)(C(F)(F)Cl)C(F)(Cl)Cl` (configuration not stated), the TGI in test [1], in [2], in test [3], in test [4], in test [5] and in test [6] was above 10 µM each time. The TGI in test [7], in test [8], in [9] and in test [10] was above 10 µM each time.
As to `Cc1csc(NCc2ccc(Cl)cc2)n1`, the TGI in test [1], in test [2], in test [3], in [4], in test [5] and in test [6] was above 100 µM in each case. Further, the TGI in test [7], in [8], in test [9] and in test [10] was above 100 µM each time.
For the compound `O=C(NCC(O)COc1ccccc1)c1ccccc1O` (configuration not stated), the TGI in test [1], in [2], in test [3], in [4], in test [5] and in test [6] was above 100 µM in each case. Moreover, the TGI in [7], in test [8], in test [9] and in [10] was above 100 µM each time.
`CNC(=O)OC1/C(C)=C\C(C)C(O)C(OC)CC(C)CC2=C(OC)C(=O)C=C(C2=O)N(C)C(=O)/C(C)=C/C=C\C1OC` (configuration not stated): the TGI in [1] was 26.3 µM; in test [2], 18.4 µM; in [3], above 100 µM; in test [4], 16 µM; in [5], 46.5 µM; in [6], 19.2 µM. In addition, the TGI in [7] turned out to be 10.7 µM; in test [8], 16.6 µM; in test [9], 31.7 µM; in test [10], 23.3 µM. Further, the results for the GI50 in test [3] and in [10] were above 100 µM and below 0.1 µM, respectively.
Regarding `CCCNC(=O)c1cc(OC)c(OC)cc1NC(=O)C12CC3CC(CC(C3)C1)C2`, the TGI is 32 µM in test [1]; 28.5 µM in test [2]; 32.8 µM in [3]; 35.4 µM in test [4]; 35.9 µM in test [5]; 32.6 µM in test [6]. The TGI amounted to 30.3 µM in [7], 39.7 µM in [8], 30.1 µM in test [9] and 46.9 µM in test [10].
In the case of `O=C1OCOC2(CCCC2)C1c1ccccc1` (configuration not stated), the TGI in [1], in test [2], in test [3], in [4], in [5] and in test [6] was above 100 µM throughout. Further, the TGI in test [7], in test [8], in test [9] and in [10] was above 100 µM throughout.
For the compound `Cc1nc2nnc(CCCCCCCCc3nnc4nc(C)[nH]n34)n2[nH]1`, the TGI in [1], in test [2], in test [3], in test [4], in test [5] and in test [6] was above 100 µM in each case. For the same compound, the TGI in test [7], in [8], in test [9] and in test [10] was above 100 µM throughout.
For the compound `CCn1c(=O)c2nc(SC)sc2n(-c2ccccc2)c1=S`, the TGI in test [1], in test [2], in [3], in test [4], in test [5] and in [6] was above 100 µM throughout. Also, the TGI is above 100 µM in test [7], above 100 µM in [8], 35.4 µM in [9] and above 100 µM in [10].
For the compound `COc1cccc(C2c3cc4c(cc3OC(NNS(=O)(=O)c3ccc(C)cc3)C2C)OCO4)c1O` (configuration not stated), the TGI in [1] is 79.2 µM; in test [2], above 100 µM; in [3], 92.4 µM; in [4], 57.5 µM; in test [5] it was 94.6 µM; in test [6] it was 78.8 µM. Also, the TGI is 80.1 µM in test [7], above 100 µM in test [8], above 100 µM in [9] and 51.8 µM in test [10].
For the compound `CCOC(=O)/C(C(=O)c1ccc[nH]1)=C1/CCCN1C`, the TGI in test [1], in test [2], in test [3], in test [4], in test [5] and in [6] was above 100 µM in each case. For the same compound, the TGI in [7], in test [8], in test [9] and in test [10] was above 100 µM each time.
As for `O=[N+]([O-])C(/C=C(\Cl)[N+](=O)[O-])=C(N1CCOCC1)N1CCOCC1`, the TGI in test [1] is above 100 µM; in [2], above 100 µM; in [3], above 100 µM; in test [4] it was 34.4 µM; in test [5], above 100 µM; in test [6], above 100 µM. The TGI was above 100 µM in test [7], above 100 µM in test [8], 54 µM in test [9] and 39.9 µM in test [10].
On to `N#CC1=C(N)OC2=C(CCCc3ccc([N+](=O)[O-])cc32)C1c1ccc(Cl)cc1` (configuration not stated), for which the TGI in [1] was above 100 µM; in [2], 49.8 µM; in test [3], 65.5 µM; in test [4], 29.4 µM; in test [5], above 100 µM; in test [6], above 100 µM. Moreover, the TGI was 39.6 µM in test [7], 44.5 µM in test [8], above 100 µM in [9] and 29.5 µM in [10].
`CC(C)C1OC(=O)C(Cc2ccccc2)N(C)C(=O)C(C(C)C)OC(=O)C(Cc2ccccc2)N(C)C(=O)C(C(C)C)OC(=O)C(Cc2ccccc2)N(C)C1=O` (configuration not stated): the TGI in test [1] stood at 1.33 µM; in [2], 2.03 µM; in test [3] it was 1.41 µM; in [4], 1.79 µM; in [5], 1.79 µM; in [6], 2.41 µM. Besides, the TGI was 2.1 µM in test [7], 2.1 µM in test [8], 1.27 µM in test [9] and 3.47 µM in [10].
